In US7074447B2 (Laboratories Miret, S.A., priority 2001, dated 2006):

Experiments:
Test in all cases: minimum inhibition concentration and Kull synergy index of LAE / potassium sorbate
Type in all cases: cell-based
[1] = test system: Bacillus megaterium (CECT 44); settings: pH 7.4, aqueous solutions
Protocol: (§1) The invention is now explained by a number of examples. In these examples LAE and sorbate alone and in a number of different combinations have been investigated against a number of bacterial preparations. For the analysis usually an internal method was used. Conditions and medium were Mueller Hinton broth (pH 7.4) or (pH 5.0) for bacteria, Sabouraud broth (pH 5.8) for yeast and Sabouraud medium for moulds. The interaction of the two components of the antimicrobial mixture is calculated according to the method described by Kull et al. (Kull […]. and Mayer R. L., Applied Microbiology, 1961; 6:538-541). According to this method the so-called synergy index is calculated according to the following formula: Synergy index […]. […] Again the effects of the components alone and in combination have been calculated using the same method as described at Example 1.

[2] = test system: Staphylococcus aureus (ATCC 6538); settings: for SI, synergy index: <1 synergism, 1 addition, >1 antagonism
Protocol: as §1

[3] = test system: Bacillus subtilis (CECT 356); settings: for SI, synergy index: <1 synergism, 1 addition, >1 antagonism
Protocol: The invention is now explained by a number of examples. In these examples LAE and sorbate alone and in a number of different combinations have been investigated against a number of bacterial preparations. For the analysis usually an internal method was used. Conditions and medium were Mueller Hinton broth (pH 7.4) or (pH 5.0) for bacteria, Sabouraud broth (pH 5.8) for yeast and Sabouraud medium for moulds. […] The interaction of the two components of the antimicrobial mixture is calculated according to the method described by Kull et al. (Kull […]. and Mayer R. L., Applied Microbiology, 1961; 6:538-541). According to this method the so-called synergy index is calculated according to the following formula: Synergy index […]. […] All indicated symbols indicate a particular concentration leading to a particular end point, in this case the inhibition of growth of Bacillus subtilis, so that the selected end point is in fact the minimal inhibitory concentration (mic).

[4] = pH 7.4, propylene glycol solutions

## CCCCCCCCCCCC(=O)N[C@@H](CCCNC(=N)N)C(=O)OCC.Cl [LAE, L-arginine, N^α-lauroyl-ethylester monohydrochloride]
[1]
  QLAE, minimum inhibition concentration of LAE as single antimicrobial: 6.4
  Qlae, minimum inhibition concentration of LAE in the mixture: 6.4
  Qlae/QLAE: 1
  Qs, minimum inhibition concentration of potassium sorbate in the mixture: 0
  Qs/QS: 0.00
[1]; <1 synergism, 1 addition, >1 antagonism
  SI, synergy index: 1.00
[2]; pH 5.0
  QLAE, minimum inhibition concentration of LAE as single antimicrobial: 29.3
  Qlae, minimum inhibition concentration of LAE in the mixture: 29.3
  Qlae/QLAE: 1.00
  Qs, minimum inhibition concentration of potassium sorbate in the mixture: 0
  Qs/QS: 0.00
  SI, synergy index: 1.00
[2]; pH 7.4, aqueous solutions
  QLAE, minimum inhibition concentration of LAE as single antimicrobial: 3.2
  Qlae, minimum inhibition concentration of LAE in the mixture: 3.2
  Qlae/QLAE: 1.0
  Qs, minimum inhibition concentration of potassium sorbate in the mixture: 0
  Qs/QS: 0.00
  SI, synergy index: 1.00
[3]; pH 5.0
  QLAE, minimum inhibition concentration of LAE as single antimicrobial: 29.3
  Qlae, minimum inhibition concentration of LAE in the mixture: 29.3
  Qlae/QLAE: 1.00
  Qs, minimum inhibition concentration of potassium sorbate in the mixture: 0
  Qs/QS: 0.00
  SI, synergy index: 1.00
[3]; [4]
  QLAE, minimum inhibition concentration of LAE as single antimicrobial: 12.8
  Qlae, minimum inhibition concentration of LAE in the mixture: 12.8
  Qlae/QLAE: 1.00
  Qs, minimum inhibition concentration of potassium sorbate in the mixture: 0
  Qs/QS: 0.00
  SI, synergy index: 1.00
